Measured values taken from US20210284621A1 (priority 2018, published 2021).
Like-named read-outs stand apart in the source and are kept apart here.

Assays:
CB2 receptor [1] = target: T1, CB2 receptor (Homo sapiens, UniProt P34972); test: CB2 competitive radioligand binding assay ([3H] WIN-55,212-2); design: expressed in transfected cells; host or cells: CHO-K1 cells; conditions: for inhibition at 0.05 µM: 0.05 μM compound, 2.4 nM [3H] WIN-55,212-2, 90 min 37° C.
In short: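 CHO-K1 cells expressing human recombinant CB2 were incubated with compound (0.05 μM, 1% DMSO) and 2.4 nM [3H]WIN-55,212-2 in 20 mM HEPES pH 7.0, 0.5% BSA for 90 min at 37 °C. Percent inhibition of radioligand binding was reported.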

CB1 receptor [2] = target: T2, CB1 receptor (Homo sapiens, UniProt P21554); test: cAMP Assay #1: CB1 adenylylcyclase assay in CHO cells; type: cell-based; design: expressed in transfected cells; host or cells: CHO cells
T2 sequence (P21554 whole entry): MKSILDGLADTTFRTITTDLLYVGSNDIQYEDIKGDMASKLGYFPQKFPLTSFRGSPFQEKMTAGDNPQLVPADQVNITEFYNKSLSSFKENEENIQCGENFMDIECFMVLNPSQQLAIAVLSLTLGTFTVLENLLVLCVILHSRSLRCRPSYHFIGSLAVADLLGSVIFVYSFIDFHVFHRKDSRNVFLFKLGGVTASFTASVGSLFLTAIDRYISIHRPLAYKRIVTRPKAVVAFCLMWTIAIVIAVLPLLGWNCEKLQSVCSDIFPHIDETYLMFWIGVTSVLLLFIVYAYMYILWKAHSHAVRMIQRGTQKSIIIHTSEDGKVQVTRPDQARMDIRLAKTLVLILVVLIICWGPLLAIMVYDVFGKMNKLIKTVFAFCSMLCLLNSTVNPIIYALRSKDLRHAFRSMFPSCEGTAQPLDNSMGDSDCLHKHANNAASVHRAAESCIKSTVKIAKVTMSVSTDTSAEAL
Method: (§1) Compounds of the invention were assayed in an adenylylcyclase assay to determine agonist activity on the CB1 and CB2 receptors, the results of which are provided in Table 4. Exemplary methods for the adenylylcyclase assay can be found in the literature, for example, in Rhee, M-H., et al. Cannabinol Derivatives: Binding to Cannabinoid Receptors and Inhibition of Adenylylcyclase. J Med Chem. 40: 3228-3233 (1997).
CB1 Activity as determined by Adenylylcyclase Assay: CB1 receptor agonist activity was measured by measuring cAMP production. A compound of the invention was incubated with CHO cells expressing human recombinant CB1 for 20 minutes at 37° C.
(§2) Determination of EC50 values: The EC50 values (concentration producing a half-maximal response) were determined by non-linear regression analysis of the concentration-response curves generated with mean replicate values using Hill equation curve fitting: Y=D+[(A−D)/(1+(C/C50)^nH)], where Y=response, A=left asymptote of the curve, D=right asymptote of the curve, C=compound concentration, and C50=EC50, and nH=slope factor. This analysis was performed using software developed at Cerep (Hill software) and validated by comparison with data generated by the commercial software SigmaPlot® 4.0 for Windows® (© 1997 by SPSS Inc.).

CB1 receptor [3] = target: T2, CB1 receptor; test: CB1 competitive radioligand binding assay ([3H] SR141716A); design: expressed in transfected cells; host or cells: Chem-1 cells; conditions: for inhibition at 0.5 µM: 0.5 μM compound, 2.0 nM [3H] SR141716A, 90 min 37° C.
In short: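 Chem-1 cells expressing human recombinant CB1 incubated 90 min at 37° C with 2.0 nM [3H]SR141716A and compound at 0.5 μM (1% DMSO) in HEPES pH 7.4 buffer with MgCl2, CaCl2, 0.2% BSA. Read-out is % inhibition of radioligand binding.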

CB1 receptor [4] = target: T2, CB1 receptor; test: cell-based; design: host or cells: PathHunter cell lines
CB2 receptor [5] = target: T1, CB2 receptor; test: cAMP Assay #1: CB2 adenylylcyclase assay in CHO cells; type: cell-based; design: expressed in transfected cells; host or cells: CHO cells
Method: as §1
CB2 Activity as determined by Adenylylcyclase Assay: CB2 receptor agonist activity was measured by measuring cAMP production. A compound of the invention was incubated with CHO cells expressing human recombinant CB2 for 10 minutes at 37° C.
as §2

CB2 receptor [6] = target: T1, CB2 receptor; test: cAMP Assay #2: Hit Hunter cAMP assay, Gi-coupled agonist activity, CB2; type: cell-based; design: host or cells: cAMP Hunter cell lines; conditions: for CB2 fold selectivity: CB1 EC50 / CB2 EC50
Method: (§3) Compounds of the invention were assayed in the Hit Hunter® cAMP assay to determine Gi-coupled agonist activity on the CB1 and CB2 receptors, the results of which are provided in Table 5.
(§4) The Hit Hunter® cAMP assay monitors the activation of a GPCR via Gi and […] secondary messenger signaling in a homogenous, non-imaging assay format using a technology developed by DiscoverX called Enzyme Fragment Complementation (EFC) with β-galactosidase (β-Gal) as the functional reporter. […] ED is fused to cAMP and in the assay competes with cAMP generated by cells for binding to a cAMP-specific antibody. Active β-Gal is formed by complementation of exogenous EA to any unbound ED cAMP. Active enzymes can then convert a chemiluminescent substrate, generating an output signal detectable on a standard microplate reader.
(§5) cAMP Hunter cell lines were expanded from freezer stocks according to standard procedures. Cells were seeded in a total volume of 20 μL into white walled, 384-well microplates and incubated at 37° C. for the appropriate time prior to testing. cAMP modulation was determined using the DiscoverX Hit Hunter cAMP XS+ assay. For Gi agonist activity determination, cells were incubated with sample in the presence of EC80 forskolin to induce response (20 μM and 25 μM in the CB1 and CB2 assays, respectively). Media was aspirated from cells and replaced with 15 μL 2:1 HBSS/10 mM HEPES:cAMP XS+Ab reagent.
(§6) Intermediate dilution of sample stocks was performed to generate 4× sample in assay buffer. 5 μL of 4× compound was added to cells and incubated at 37° C. or room temperature for 30 or 60 minutes. Final vehicle concentration was 1%. Assay signal was generated through incubation with 20 μL cAMP XS+ED/CL lysis cocktail for one hour at room temperature. Microplates were read following signal generation with a PerkinElmer Envision™ instrument for chemiluminescent signal detection. Compound activity was analyzed using CBIS data analysis suite (Chem Innovation, CA). For agonist assays, percentage activity was calculated using the following formula: % Activity=100%×(1−(mean RLU of test sample−mean RLU of Max control ligand)/(mean RLU of vehicle control−mean RLU of Max control ligand). Control ligand was the non-selective CB1/CB2 agonist CP55,940.

CB2 receptor [7] = target: T1, CB2 receptor; test: cell-based; design: host or cells: cAMP Hunter cell lines; conditions: PathHunter agonist mode; read-out: CB2 Activity (β-Arrestin)
In short: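 PathHunter β-Arrestin enzyme fragment complementation cells, EA-tagged β-Arrestin and PK-tagged receptor, exposed to compound for 90 to 180 minutes at 37° C. or room temperature, 1% vehicle. Chemiluminescence read 1 h after detection reagent; agonist % activity relative to vehicle and MAX control ligand.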

CB1 receptor [8] = target: T2, CB1 receptor; test: cAMP Assay #2: Hit Hunter cAMP assay, Gi-coupled agonist activity, CB1; type: cell-based; design: host or cells: PathHunter cell lines
Method: as §3, §4, §5, §6

[9] = system: 12 systems of human primary cells; test: BioMAP Diversity PLUS phenotypic screen; type: cell-based; conditions: 3.3 μM; changes at least 1.5-fold from vehicle control
Method: Compounds of the invention were assayed for their effects on 148 biomarkers of inflammation, immune modulation and tissue remodeling in the BioMAP® Diversity PLUS® (DiscoverX) platform designed to model aspects of human diseases in vitro (Kunkel 2004, Berg 2006, Melton 2013).
The example compounds (3.3 μM) in Table 8 induced increases or decreases in the levels of the indicated 20 biomarkers, which are at least 1.5-fold change from vehicle control and are outside the significance prediction envelop. All compounds presented in Table 8 were not cytotoxic at the concentration tested.

[10] = PathHunter agonist mode, read-out: CB1 Activity (β-Arrestin)
[11] = Table 2, read-out: CB2 Binding Ki
[12] = CHO cells, 20 min 37° C., relative to 10 nM CP 55940, read-out: CB1 Activity EC50 (cAMP)
[13] = Table 2, read-out: CB1 Binding Ki
[14] = CHO cells, 10 min 37° C., relative to 100 nM WIN 55212-2, read-out: CB2 Activity EC50 (cAMP)
[15] = Hit Hunter cAMP, 25 μM forskolin, control ligand CP55,940, read-out: CB2, EC50
[16] = Hit Hunter cAMP, 20 μM forskolin, control ligand CP55,940, read-out: CB1, EC50

T1 sequence (P34972 whole entry): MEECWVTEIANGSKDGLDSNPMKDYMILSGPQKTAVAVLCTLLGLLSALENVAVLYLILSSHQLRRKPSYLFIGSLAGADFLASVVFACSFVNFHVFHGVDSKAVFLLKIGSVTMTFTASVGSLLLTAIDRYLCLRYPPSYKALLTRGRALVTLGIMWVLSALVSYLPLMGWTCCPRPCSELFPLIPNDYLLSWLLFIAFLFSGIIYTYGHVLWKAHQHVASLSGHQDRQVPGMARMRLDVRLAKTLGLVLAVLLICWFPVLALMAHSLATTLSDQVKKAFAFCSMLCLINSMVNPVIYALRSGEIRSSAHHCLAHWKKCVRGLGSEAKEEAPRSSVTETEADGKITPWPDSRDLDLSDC

Structure (SMILES)	Ki (CB2 receptor [1]) [µM]	inhibition at 0.05 µM (CB2 receptor [1]) [%]	Fold Selectivity (CB1/CB2) (CB2 receptor [1]; Table 2, ratio of Ki CB1/CB2)	EC50 (CB1 receptor [2]) [µM]	Ki (CB1 receptor [3]) [µM]	inhibition at 0.5 µM (CB1 receptor [3]) [%]	EC50 (CB1 receptor [4]; [10]) [µM]	EC50 (CB2 receptor [5]) [µM]	CB2 fold selectivity (CB2 receptor [6]; Hit Hunter cAMP)	EC50 (CB2 receptor [7]) [µM]	Ki (CB2 receptor [1]; [11]) [µM]	EC50 (CB1 receptor [2]; [12]) [µM]	Ki (CB1 receptor [3]; [13]) [µM]	EC50 (CB2 receptor [5]; [14]) [µM]	EC50 (CB2 receptor [6]; [15]) [µM]	EC50 (CB1 receptor [8]; [16]) [µM]	further results
CCCCCCC(C)(C)c1cc(O)c2c(c1)OC(C)(C)[C@@H]1CC=C(C(=O)NCCO)C[C@@H]21 [Compound 5, (6aR,10aR)-1-Hydroxy-N-(2-hydroxyethyl)-6,6-dimethyl-3-(2-methyloctan-2-yl)-6a,7,10,10a-tetrahydro-6H-benzo[c]chromene-9-carboxamide]	0.028	57	12.6	< 0.003	0.35	49	0.62	0.0033	8.2	0.52	–	–	–	–	–	–	EC50 (CB2 receptor [6]): 0.0039 µM; EC50 (CB1 receptor [8]): 0.0322 µM
CCCCCCC(C)(C)c1cc(O)c2c(c1)OC(C)(C)[C@@H]1CC=C(C(=O)NC3CC3)C[C@@H]21 [Compound 6, (6aR,10aR)—N-Cyclopropyl-1-hydroxy-6,6-dimethyl-3-(2-methyloctan-2-yl)-6a,7,10,10a-tetrahydro-6H-benzo[c]chromene-9-carboxamide]	0.0039	98	12	< 0.003	0.045	64	0.16	< 0.003	6.0	0.21	–	–	–	–	–	–	EC50 (CB2 receptor [6]): 0.0008 µM; EC50 (CB1 receptor [8]): 0.0047 µM
CCCCCCC(C)(C)c1cc(O)c2c(c1)OC(C)(C)[C@@H]1CC=C(C(=O)NCCCO)C[C@@H]21 [Compound 13, (6aR,10aR)-1-Hydroxy-N-(3-hydroxypropyl)-6,6-dimethyl-3-(2-methyloctan-2-yl)-6a,7,10,10a-tetrahydro-6H-benzo[c]chromene-9-carboxamide]	–	68	34	–	–	49	0.787	–	26.5	0.807	0.0124	0.0046	0.42	0.0031	0.0025	0.0662	–
CCCCCCC(C)(C)c1cc(O)c2c(c1)OC(C)(C)[C@@H]1CC=C(C(=O)N[C@H](C)CCO)C[C@@H]21 [Compound 14, (6aR,10aR)-1-Hydroxy-N—((R)-4-hydroxybutan-2-yl)-6,6-dimethyl-3-(2-methyloctan-2-yl)-6a,7,10,10a-tetrahydro-6H-benzo[c]chromene-9-carboxamide]	–	47	22	–	–	25	> 3	–	115.2	0.008	0.056	0.01	1.23	0.0097	0.0041	0.47	–
CCCCCCC(C)(C)c1cc(O)c2c(c1)OC(C)(C)[C@@H]1CC=C(C(=O)NCC(O)CO)C[C@@H]21 (stereo partly drawn) [Compound 24, (6aR,10aR)-N-(2,3-Dihydroxypropyl)-1-hydroxy-6,6-dimethyl-3-(2-methyloctan-2-yl)-6a,7,10,10a-tetrahydro-6H-benzo[c]chromene-9-carboxamide]	–	60	35	–	–	44	> 3	–	63.5	0.002	0.055	0.013	1.93	0.0024	0.0035	0.223	–
CC(C)(c1ccccc1)c1cc(O)c2c(c1)OC(C)(C)[C@@H]1CC=C(C(=O)O)C[C@@H]21 [Compound 35, (6aR,10aR)-1-Hydroxy-6,6-dimethyl-3-(2-phenylpropan-2-yl)-6a,7,10,10a-tetrahydro-6H-benzo[c]chromene-9-carboxylic acid]	> 3	–	–	> 0.3	> 3	–	> 3	> 0.3	–	> 3	–	–	–	–	–	–	–
CCCCCCC(C)(C)c1cc(O)c2c(c1)OC(C)(C)[C@@H]1CC=C(C(=O)NC3CCC3)C[C@@H]21 [Compound 44, (6aR,10aR)-N-cyclobutyl-1-hydroxy-6,6-dimethyl-3-(2-methyloctan-2-yl)-6a,7,10,10a-tetrahydro-6H-benzo[c]chromene-9-carboxamide]	0.0024	–	–	–	0.0335	–	0.0111	–	–	0.0016	–	–	–	–	–	–	Immune modulation, cell surface and tissue remodeling biomarkers [9]: Reduced MCP-1, P-selectin, and IL-1α; Fold Selectivity (CB1/CB2) (CB2 receptor [1]; Table 3, ratio of Ki CB1/CB2): 14.0
CCCCCCC(C)(C)c1cc(O)c2c(c1)OC(C)(C)[C@@H]1CC=C(C(=O)N3CCCCC3)C[C@@H]21 [Compound 93, ((6aR,10aR)-1-hydroxy-6,6-dimethyl-3-(2-methyloctan-2-yl)-6a,7,10,10a-tetrahydro-6H-benzo[c]chromen-9-yl)(piperidin-1-yl)methanone]	0.0319	–	–	–	0.243	–	–	–	–	0.0031	–	–	–	–	–	–	Immune modulation, cell surface and tissue remodeling biomarkers [9]: Reduced Eotaxin-3, P-selectin, CD69, and M-CSF; increased IL-6; Fold Selectivity (CB1/CB2) (CB2 receptor [1]; Table 3, ratio of Ki CB1/CB2): 7.6; EC50 (CB1 receptor [4]): > 3 µM
